Results as given in patent US11759464B2, “Gonadotropin-releasing hormone antagonist dosing regimens for treating uterine fibroids and reducing menstrual blood loss” (ObsEva S.A., priority 2017, dated 2023).

Experiments:
Format in all cases: in vivo
[1] = tested on: healthy human female subjects; test: biomarkers of bone mineral density (creatinine-normalized deoxypyridinoline); details: 100 mg/day + 1.0 mg/day E2 and 0.5 mg/day norethindrone acetate, urine (FIG. 25)
Protocol: (§1) To assess the effects of compound (II) on serum β17-estradiol concentration and menstrual blood loss, a total of 75 healthy human female subjects were divided into five treatment groups, as described in Table 1, below. The subjects were screened for a period of four weeks prior to the commencement of treatment with compound (II). At the conclusion of the four week screening period, the subjects in each treatment arm were administered an equivalent dosage of norethindrone acetate of 5 mg×3 times daily. This 15 mg/day dosage was administered for a total of 11 days so as to allow synchronization of menses among the subjects. The subjects were subsequently not treated for the ensuing 4 days. Following this withdrawal period, the subjects were treated with compound (II), with or without add-back therapy, once daily for 42 days according to the dosages set forth in Table 1. Following the 42-day treatment cycle, the subjects were further monitored for a period of 13 days. In addition to assessing the ability of compound (II) to modulate serum E2 and progesterone levels and to curtail menstrual bleeding, compound (II) was evaluated for its effects on biomarkers of bone mineral density (FIGS. 25-29). These markers include creatinine-normalized deoxypyridinoline (DPD), which is excreted in larger quantities when bone resorption is increased.

[2] = tested on: healthy human female subjects; test: menstrual bleeding pattern (amenorrhea) during treatment; details: for Amenorrhea (no bleeding), subjects / Amenorrhea + spotting only, subjects: last 4 weeks of treatment
Protocol: as §1, with “To assess” for “In addition to assessing”, “effects” for “ability”, “on” for “to modulate serum E2 and progesterone levels and to curtail”, “blood loss, the volume of menstrual blood lost by each subject” for “bleeding, compound (II)”, “evaluated over the course of the entirety of the study, including the 11-day screening period, 4-day withdrawal period, 42-treatment period, and 13-day post-treatment evaluation period. Assessment of menstrual blood loss was conducted using an electronic diary method, as subjects recorded daily whether their bleeding” for “evaluated”, “each day was heavy, moderate, or light spotting.” for “its effects on biomarkers of bone mineral density (FIGS. 25-29). These markers include creatinine-normalized deoxypyridinoline (DPD), which is excreted in larger quantities when bone resorption is increased.”

[3] = tested on: healthy human female subjects; test: serum β17-estradiol (E2) concentration during 42-day once-daily treatment
Protocol: To assess the effects of compound (II) on serum β17-estradiol concentration and menstrual blood loss, a total of 75 healthy human female subjects were divided into five treatment groups, as described in Table 1, below. The subjects were screened for a period of four weeks prior to the commencement of treatment with compound (II). At the conclusion of the four week screening period, the subjects in each treatment arm were administered an equivalent dosage of norethindrone acetate of 5 mg×3 times daily. This 15 mg/day dosage was administered for a total of 11 days so as to allow synchronization of menses among the subjects. The subjects were subsequently not treated for the ensuing 4 days. Following this withdrawal period, the subjects were treated with compound (II), with or without add-back therapy, once daily for 42 days according to the dosages set forth in Table 1. Following the 42-day treatment cycle, the subjects were further monitored for a period of 13 days. As used herein, the add-back regime of 1.0 mg/day β17-estradiol and 0.5 mg/day norethindrone acetate is referred to as the “high-dose” or […] add-back dosage, while the add-back regime of 0.5 mg/day β17-estradiol and 0.1 mg/day norethindrone acetate was referred to as the “low-dose” or “LD” add-back dosage. This labeling convention is used throughout this Example and is additionally referred to in the Figures.

[4] = 100 mg daily + add-back E2/NETA 0.5 mg/0.1 mg
[5] = 100 mg daily + add-back E2/NETA 0.5 mg/0.1 mg, listed as compound (II)
[6] = 100 mg daily + add-back E2/NETA 1 mg/0.5 mg
[7] = 100 mg daily + add-back E2/NETA 1 mg/0.5 mg, listed as compound (II)
[8] = 100 mg daily, no add-back, listed as compound (II)
[9] = 200 mg daily + add-back E2/NETA 1 mg/0.5 mg
[10] = 200 mg daily + add-back E2/NETA 1 mg/0.5 mg, listed as compound (II)
[11] = 200 mg daily, no add-back, listed as compound (II)

COc1cc(F)c(-n2c(=O)[nH]c3csc(C(=O)O)c3c2=O)cc1OCc1c(OC)ccc(F)c1F [Compound (II), choline 3-[2-fluoro-5-(2,3-difluoro-6-methoxybenzyloxy)-4-methoxyphenyl]-2,4-dioxo-1,2,3,4-tetrahydrothieno [3,4d]pyrimidine-5-carboxylate]
creatinine-normalized deoxypyridinoline (DPD), comparison among arms [1]: smallest increase
Amenorrhea (no bleeding), subjects [2, 4]: 21%
Amenorrhea + spotting only, subjects [2, 4]: 57%
Amenorrhea (no bleeding), subjects [2, 5]: at least 21%
Amenorrhea + spotting only, subjects [2, 5]: at least 57%
Amenorrhea (no bleeding), subjects [2, 6]: 53%
Amenorrhea + spotting only, subjects [2, 6]: 93%
Amenorrhea (no bleeding), subjects [2, 7]: at least 53%
Amenorrhea + spotting only, subjects [2, 7]: at least 93%
Amenorrhea (no bleeding), subjects ([2]; 100 mg daily, no add-back): 86%
Amenorrhea + spotting only, subjects ([2]; 100 mg daily, no add-back): 93%
Amenorrhea (no bleeding), subjects [2, 8]: at least 86%
Amenorrhea + spotting only, subjects [2, 8]: at least 93%
Amenorrhea (no bleeding), subjects [2, 9]: 33%
Amenorrhea + spotting only, subjects [2, 9]: 60%
Amenorrhea (no bleeding), subjects [2, 10]: at least 33%
Amenorrhea + spotting only, subjects [2, 10]: at least 60%
Amenorrhea (no bleeding), subjects ([2]; 200 mg daily, no add-back): 87%
Amenorrhea + spotting only, subjects ([2]; 200 mg daily, no add-back): 100%
Amenorrhea (no bleeding), subjects [2, 11]: at least 87%
Amenorrhea + spotting only, subjects [2, 11]: 100%
effect on menstrual bleeding ([2]; 100 or 200 mg/day with or without add-back (FIGS. 20-24)): capable of inducing sustained amenorrhea
Median E2 level, E2 Week 1 ([3]; 100 mg daily + add-back E2/NETA 0.5 mg/0.1 mg, n = 14, after week 1): 25 pg/mL
Median E2 level, E2 Week 6 ([3]; 100 mg daily + add-back E2/NETA 0.5 mg/0.1 mg, n = 14, after week 6): 40 pg/mL
Median E2 level, E2 Week 1 ([3]; 100 mg daily + add-back E2/NETA 1 mg/0.5 mg, n = 15, after week 1): 35 pg/mL
Median E2 level, E2 Week 6 ([3]; 100 mg daily + add-back E2/NETA 1 mg/0.5 mg, n = 15, after week 6): 34 pg/mL
Median E2 level, E2 Week 1 ([3]; 100 mg daily, no add-back, n = 14, after week 1): 12 pg/mL
Median E2 level, E2 Week 6 ([3]; 100 mg daily, no add-back, n = 14, after week 6): 18 pg/mL
E2 levels, majority of subjects ([3]; 100 mg/day without add-back, each of days 8, 15 and 22): less than 20 μg/ml
Median E2 level, E2 Week 1 ([3]; 200 mg daily + add-back E2/NETA 1 mg/0.5 mg, n = 15, after week 1): 27 pg/mL
Median E2 level, E2 Week 6 ([3]; 200 mg daily + add-back E2/NETA 1 mg/0.5 mg, n = 15, after week 6): 25 pg/mL
Median E2 level, E2 Week 1 ([3]; 200 mg daily, no add-back, n = 14, after week 1): 5 pg/mL
Median E2 level, E2 Week 6 ([3]; 200 mg daily, no add-back, n = 14, after week 6): 3 pg/mL
serum E2 concentrations, all subjects ([3]; 200 mg/day stand-alone arm, each of days 8, 15, 22, 29 and 36): less than 20 μg/ml
effect on median serum E2 levels ([3]; 100 or 200 mg/day, 42-day treatment cycle (FIG. 1)): reduced in a dose-dependent manner
